Experimental data: the supplement of paper PMC10331698
± gives the standard deviation of the averaged measurements.

Key:
Test in all cases: LOEC (log10 uM (lowest observed effect concentration))
[1] = compound: C[C@@H]1C[C@H]2[C@@H]3CCC4=CC(=O)C=C[C@]4(C)[C@@]3(F)[C@@H](O)C[C@]2(C)[C@@]1(O)C(=O)COP(=O)(O)O [Dexamethasone sodium phosphate]
Method: (§1)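 BioMAP Diversity Plus panel in human primary cell co-cultures, 4 concentrations in duplicate blinded samples. Responses are log10 fold change versus DMSO control, processed with tcpl v2.1.0. A hit is called when responses at any concentration exceed the cutoff (the larger of 3*bmad or log10(1.2)); the lowest observed effect concentration (modl_ga, log10 uM) is reported for hits.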

[2] = compound: NS(=O)(=O)C(F)(F)C(F)(F)C(F)(F)C(F)(F)C(F)(F)C(F)(F)C(F)(F)C(F)(F)F [Perfluorooctanesulfonamide]
Method: as §1

Perfluoroundecanoic acid = compound: O=C(O)C(F)(F)C(F)(F)C(F)(F)C(F)(F)C(F)(F)C(F)(F)C(F)(F)C(F)(F)C(F)(F)C(F)(F)F [Perfluoroundecanoic acid]
Method: as §1

[3] = compound: O=C(O)C(F)(F)OC(F)(F)C(F)(F)OC(F)(F)C(F)(F)OC(F)(F)C(F)(F)C(F)(F)C(F)(F)F [Perfluoro-3,6,9-trioxatridecanoic acid]
Method: as §1

[4] = compound: CCNS(=O)(=O)C(F)(F)C(F)(F)C(F)(F)C(F)(F)C(F)(F)C(F)(F)C(F)(F)C(F)(F)F [N-Ethylperfluorooctanesulfonamide]
Method: as §1

Perfluorononanoic acid = compound: O=C(O)C(F)(F)C(F)(F)C(F)(F)C(F)(F)C(F)(F)C(F)(F)C(F)(F)C(F)(F)F [Perfluorononanoic acid]
Method: as §1

[5] = compound: O=C(O)C=C(C(F)(F)F)C(F)(F)F [3,3-Bis(trifluoromethyl)-2-propenoic acid]
Method: as §1

[6] = compound: O=S(=O)(O)CCC(F)(F)C(F)(F)C(F)(F)C(F)(F)C(F)(F)C(F)(F)C(F)(F)C(F)(F)F [8:2 Fluorotelomer sulfonic acid]
Method: as §1

[7] = compound: OCC(F)(F)OC(F)(F)C(F)(F)OC(F)(F)C(F)(F)OC(F)(F)CO [1H,1H,11H,11H-Perfluorotetraethylene glycol]
Method: as §1

[8] = compound: O=C(O)C(F)(OC(F)(F)C(F)(F)C(F)(F)F)C(F)(F)F [Ammonium perfluoro-2-methyl-3-oxahexanoate]
Method: as §1

[9] = compound: O=S(=O)(O)C(F)(F)C(F)(F)C(F)(F)C(F)(F)C(F)(F)C(F)(F)C(F)(F)F [Perfluoroheptanesulfonic acid]
Method: as §1

[10] = compound: O=S(=O)(O)C(F)(F)C(F)(F)OC(F)(F)C(F)(F)F [Perfluoro(2-ethoxyethane)sulfonic acid]
Method: as §1

[11] = compound: OCC(F)(F)C(F)(F)C(F)(F)C(F)(F)C(F)(F)C(F)(F)CO [1H,1H,8H,8H-Perfluorooctane-1,8-diol]
Method: as §1

[12] = compound: O=C(O)CCC(F)(C(F)(F)F)C(F)(F)F [4,4-bis(Trifluoromethyl)-4-fluoropropanoic acid]
Method: as §1

[13] = compound: OCCC(F)(F)C(F)(F)C(F)(F)C(F)(F)F [4:2 Fluorotelomer alcohol]
Method: as §1

Test System	LOEC (log10 uM) [1]	LOEC (log10 uM) [2]	LOEC (log10 uM) (Perfluoroundecanoic acid)	LOEC (log10 uM) [3]	LOEC (log10 uM) [4]	LOEC (log10 uM) (Perfluorononanoic acid)	LOEC (log10 uM) [5]	LOEC (log10 uM) [6]	also measured
LPS TNFa down	0.954	1.78	0.845	1.78	–	–	–	–	–
IMphg VCAM1 down	1.48	1.78	–	1.78	1.78	1.78	1.78	–	–
BF4T Eotaxin3 down	–	1.3	0.301	0.845	0.845	1.3	–	1.54 ± 0.34	–
hDFCGF Proliferation down	–	1.3	0.301	0.845	1.3	1.54 ± 0.34	1.78	–	LOEC (log10 uM) [7]: 1.04 ± 1
IMphg IL10 down	0	1.54 ± 0.34	–	1.78	–	1.78	0.845	1.3	LOEC (log10 uM) [8]: 0.301; LOEC (log10 uM) [9]: 1.48; LOEC (log10 uM) [10]: 1.78; LOEC (log10 uM) [11]: 1.31 ± 0.66; LOEC (log10 uM) [7]: 1.78
CASM3C SAA up	–	–	–	–	–	–	–	–	LOEC (log10 uM) [12]: 1.54 ± 0.34; LOEC (log10 uM) [10]: 1.54 ± 0.34
CASM3C IL6 down	0.239 ± 0.34	–	–	–	–	–	1.07 ± 0.32	–	–
BE3C IP10 down	–	0.845	0.301	0.845	1.07 ± 0.32	1.3	–	1.3	LOEC (log10 uM) [7]: 1.78
BT xTNFa up	–	–	–	–	–	–	–	–	LOEC (log10 uM) [13]: 1.31 ± 0.66
IMphg MIP1a down	0	–	–	1.54 ± 0.34	–	–	–	–	–
IMphg ESelectin down	0	0.573 ± 0.39	–	1.3	1.54 ± 0.34	–	1.78	–	–
BT PBMCCytotoxicity down	0	–	–	–	–	–	–	–	–
IMphg MCP1 down	0.477	1.54 ± 0.34	–	1.3	1.78	–	–	–	–
CASM3C VCAM1 down	–	1.78	–	1.78	1.54 ± 0.34	–	0.573 ± 0.39	–	LOEC (log10 uM) [8]: 1.31 ± 0.66
CASM3C MCP1 down	0.477 ± 0.68	–	–	–	–	–	–	–	–
SAg Eselectin down	0.716 ± 0.34	1.78	–	1.78	1.78	–	1.3	–	LOEC (log10 uM) [7]: 1.78
LPS IL1a down	–	1.78	-0.427 ± 0.39	1.78	–	1.78	–	1.78	–
BE3C MMP1 up	–	–	–	–	1.3	–	–	1.3	LOEC (log10 uM) [8]: 1.78; LOEC (log10 uM) [9]: 1.48
hDFCGF MMP1 down	0.954	1.3	0.845	0.845	1.78	–	–	–	–
BE3C tPA down	0.239 ± 0.34	1.78	0.845	0.845	1.3	1.3	0.801 ± 0.71	–	–
IMphg CD69 down	–	–	–	1.31 ± 0.66	1.78	1.78	–	1.78	–

Test System	LOEC (log10 uM) [1]	LOEC (log10 uM) [2]	LOEC (log10 uM) (Perfluoroundecanoic acid)	LOEC (log10 uM) [3]	LOEC (log10 uM) [4]	LOEC (log10 uM) (Perfluorononanoic acid)	LOEC (log10 uM) [5]	LOEC (log10 uM) [6]	also measured
BF4T tPA down	–	1.78	0.845	0.845	1.3	1.54 ± 0.34	1.07 ± 0.32	–	LOEC (log10 uM) [7]: 1.54 ± 0.34
BE3C HLADR down	–	0.845	0.573 ± 0.39	0.845	1.3	1.31 ± 0.66	–	1.3	LOEC (log10 uM) [7]: 1.78
LPS Thrombomodulin up	–	–	–	1.78	1.78	–	–	1.54 ± 0.34	LOEC (log10 uM) [7]: 1.04 ± 1
IMphg IL8 down	0.239 ± 0.34	–	–	–	–	–	–	–	–
BE3C MMP1 down	0.477 ± 0.68	–	0.845	0.845	–	1.78	–	–	–
4H Eotaxin3 down	–	1.78	–	1.78	1.54 ± 0.34	1.78	1.78	–	LOEC (log10 uM) [8]: 1.04 ± 1
KF3CT IL1a down	–	1.78	0.845	1.3	1.78	0.801 ± 0.71	–	1.3	–
IMphg IL8 up	–	–	–	–	1.78	1.07 ± 0.32	1.3	–	LOEC (log10 uM) [8]: 0.573 ± 0.39
SAg IL8 down	–	1.78	–	1.3	1.78	1.78	1.78	–	LOEC (log10 uM) [7]: 1.78
BF4T IL8 up	–	–	–	–	–	–	–	–	LOEC (log10 uM) [9]: 1.48
LPS PGE2 down	1.22 ± 0.37	–	–	1.78	–	1.54 ± 0.34	–	1.78	–
CASM3C Thrombomodulin up	–	1.78	–	–	1.78	–	–	–	LOEC (log10 uM) [8]: 0.845
3C IL8 up	–	–	–	–	–	–	–	–	LOEC (log10 uM) [8]: 1.78
BT xIL2 down	0	–	–	–	–	–	0.845	–	–
BE3C IL8 down	0.239 ± 0.34	0.845	0.845	0.845	1.3	1.3	–	1.78	–
hDFCGF VCAM1 down	–	1.07 ± 0.32	0.301	0.845	0.301	–	1.78	–	LOEC (log10 uM) [7]: 1.3
IMphg ESelectin up	–	–	–	–	–	–	–	1.78	–
IMphg CD40 down	–	1.3	–	1.78	1.78	1.78	–	1.78	–
LPS IL8 up	–	–	–	–	–	–	–	–	LOEC (log10 uM) [8]: 1.54 ± 0.34; LOEC (log10 uM) [10]: 1.54 ± 0.34
BT xIL6 down	0.716 ± 0.34	1.78	–	1.78	–	–	–	–	LOEC (log10 uM) [7]: 1.78
